This is an account of results in article PMC4954775 (Nature chemical biology, 2013).

Usually IC50 stands for the midpoint of a concentration-inhibition curve.

This assay has as its target T1, α-L-iduronidase (IDUA) (Homo sapiens, UniProt P35475).
T1 sequence (P35475 28-653): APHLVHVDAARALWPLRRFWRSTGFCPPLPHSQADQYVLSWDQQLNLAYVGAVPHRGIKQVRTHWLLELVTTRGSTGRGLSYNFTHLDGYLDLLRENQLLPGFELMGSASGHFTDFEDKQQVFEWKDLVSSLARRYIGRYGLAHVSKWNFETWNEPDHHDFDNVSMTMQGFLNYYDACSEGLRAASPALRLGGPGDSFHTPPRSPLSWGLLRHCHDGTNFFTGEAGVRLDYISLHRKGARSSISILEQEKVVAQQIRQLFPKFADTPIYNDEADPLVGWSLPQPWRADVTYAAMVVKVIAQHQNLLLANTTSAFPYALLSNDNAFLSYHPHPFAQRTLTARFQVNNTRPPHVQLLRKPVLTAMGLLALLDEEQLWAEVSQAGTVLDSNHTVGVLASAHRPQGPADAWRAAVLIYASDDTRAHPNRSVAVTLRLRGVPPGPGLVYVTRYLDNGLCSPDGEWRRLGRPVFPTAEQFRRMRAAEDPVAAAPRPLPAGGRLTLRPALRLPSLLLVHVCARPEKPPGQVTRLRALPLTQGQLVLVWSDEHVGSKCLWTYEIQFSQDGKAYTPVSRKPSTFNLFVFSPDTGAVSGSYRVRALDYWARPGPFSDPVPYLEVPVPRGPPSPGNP
Description: X-ray crystal structure. Type of assay: biochemical.

In the case of `O=C(O)[C@@H]1NC[C@H](O)[C@@H](O)[C@@H]1O` [IdoADNJ, [2R, 3R, 4R, 5S]-2-carboxy-3,4,5-trihydroxy-piperidine], the IC50 is roughly 3 mM.
